EC50 data for 42 compounds are collected here from patent US8354403B2, “Pyrrolidine derived beta 3 adrenergic receptor agonists” (Merck Sharp & Dohme Corp., priority 2009, dated 2013).

Molecules are shown by their SMILES.

For one assay, the target named is T1, human β3 adrenergic receptor (Homo sapiens, UniProt P13945).
T1 construct: expressed in transfected cells; host or cells: Chinese hamster ovary (CHO) cells, stably transfected
T1 sequence (P13945 whole entry): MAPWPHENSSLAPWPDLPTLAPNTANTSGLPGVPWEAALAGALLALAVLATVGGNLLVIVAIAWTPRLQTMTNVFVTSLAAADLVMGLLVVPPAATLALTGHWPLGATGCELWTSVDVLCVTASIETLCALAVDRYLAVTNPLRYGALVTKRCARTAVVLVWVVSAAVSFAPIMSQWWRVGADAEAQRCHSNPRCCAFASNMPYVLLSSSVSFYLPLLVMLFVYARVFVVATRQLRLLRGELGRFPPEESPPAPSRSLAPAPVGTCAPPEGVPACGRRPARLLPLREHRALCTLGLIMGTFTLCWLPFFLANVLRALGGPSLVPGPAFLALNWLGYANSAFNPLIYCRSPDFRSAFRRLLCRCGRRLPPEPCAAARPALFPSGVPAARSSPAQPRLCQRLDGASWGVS
Kind of assay: Beta-3 agonist in vitro functional assay: cAMP production (LANCE TR-FRET) in CHO cells stably transfected with the cloned β3 receptor. To be noted: Table 4; cAMP, CHO cells; read-out: Human β3 agonist functional activity. The class given is cell-based. Summed up: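 CHO cells stably expressing the cloned receptor, in HEPES-buffered HBSS with BSA and 0.6 mM IBMX, 6,000 cells/well, exposed to compound for 30 min at RT. cAMP read by LANCE TR-FRET against a cAMP standard curve. Isoproterenol defines maximal stimulation.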
Take `Cn1ncc2c1CN(C(=O)c1ccc(C[C@@H]3CC[C@H]([C@H](O)c4ccccc4)N3)cc1)C2` [Example 28]: the EC50 lay within 100 to 999 nM.
`Cn1ccnc1C1CCCCN1C(=O)c1ccc(C[C@@H]2CC[C@H]([C@H](O)c3ccccc3)N2)cc1` (stereo partly drawn) [Example 51]: the EC50 lay within 100 to 999 nM.
`COc1ccc2c(c1)C(=O)CC1(CCCN(C(=O)c3ccc(C[C@@H]4CC[C@H]([C@H](O)c5ccccc5)N4)cc3)C1)O2` (stereo partly drawn) [Example 43]: the EC50 is 10 to 99.9 nM.
With `O=C(c1ccc(C[C@@H]2CC[C@H]([C@H](O)c3ccccc3)N2)cc1)N1CC2CC(n3cncn3)CC2C1` (stereo partly drawn) [Example 22], the EC50 is 100 to 999 nM.

The assay is the same for the next values; noted with them: Table 5; cAMP, CHO cells; read-out: Human β3 agonist functional activity.
Regarding `O=C(c1ccc(C[C@@H]2CC[C@H]([C@H](O)c3ccccc3)N2)cc1)N1CCC(Cn2cccnc2=O)CC1` [Example 150], the EC50 fell in the range of 100 to 999 nM.
Same read-out and setting: in the case of `O=C(c1ccc(C[C@@H]2CC[C@H]([C@H](O)c3ccccc3)N2)cc1)N1CCC(Cn2ccnc2)CC1` [Example 142] it was 100 to 999 nM.
On the same count and under the same terms, the figure for `CCS(=O)(=O)C1CCN(C(=O)c2ccc(C[C@@H]3CC[C@H]([C@H](O)c4ccccc4)N3)cc2)CC1` [Example 124] is 1 to 9.9 nM; for `O=C(c1ccc(C[C@@H]2CC[C@H]([C@H](O)c3ccccc3)N2)cc1)N1CCC(n2ccccc2=O)CC1` [Example 70] it is 100 to 999 nM.
For `CC(Oc1ccncn1)C1CCN(C(=O)c2ccc(C[C@@H]3CC[C@H]([C@H](O)c4ccccc4)N3)cc2)CC1` (stereo partly drawn) [Example 167], the EC50 was 100 to 999 nM.
In the case of `O=C(OCc1ccccc1)C1CCN(C(=O)c2ccc(C[C@@H]3CC[C@H]([C@H](O)c4ccccc4)N3)cc2)CC1` [Example 119], the EC50 fell in the range of 10 to 99.9 nM.
The same measure, in the same setting: the figure for `Cn1nnnc1C1CCN(C(=O)c2ccc(C[C@@H]3CC[C@H]([C@H](O)c4ccccc4)N3)cc2)CC1` [Example 108] is 1 to 9.9 nM.
The same measure, in the same setting: in the case of `COC(=O)c1ccccc1C1CCN(C(=O)c2ccc(C[C@@H]3CC[C@H]([C@H](O)c4ccccc4)N3)cc2)CC1` [Example 111] it was 10 to 99.9 nM.

The assay is the same for the next values; noted with them: Table 7; cAMP, CHO cells; ranges as given for Tables 6 and 7; read-out: Human β3 agonist functional activity.
Regarding `N#CC1(c2cnccn2)C2CN(C(=O)c3ccc(C[C@@H]4CC[C@H]([C@H](O)c5ccccc5)N4)cc3)CC21` (stereo partly drawn) [Example 235], the EC50 was in the range of 10 to 99.9 nM.

Still in this assay, the particulars now being: Table 8; Beta-3 agonist in vitro functional assay; read-out: Human β3 agonist functional activity.
Turning to `O=C(c1ccc(C[C@@H]2CC[C@H]([C@H](O)c3cccnc3)N2)cc1)N1CCC2(CC1)SCc1ccccc12` [Example 301], the EC50 fell in the range of 100 to 999 nM.
On the same count and under the same terms, the figure for `O=C(c1ccc(C[C@@H]2CC[C@H]([C@H](O)c3ccccc3)N2)cc1)N1CCC2(C=Cc3ccccc3S2(=O)=O)CC1` [Example 337] is 1 to 9.9 nM; for `CC1(C)COC(=O)C12CCN(C(=O)c1ccc(C[C@@H]3CC[C@H]([C@H](O)c4ccccc4)N3)cc1)CC2` [Example 298] it is 1 to 9.9 nM; for `COC(=O)C1CC2(CCN(C(=O)c3ccc(C[C@@H]4CC[C@H]([C@H](O)c5ccccc5)N4)cc3)CC2)c2ccccc21` (stereo partly drawn) [Example 320] it is 10 to 99.9 nM.
The same measure, in the same setting: in the case of `O=C(c1ccc(C[C@@H]2CC[C@H]([C@H](O)c3ccccc3)N2)cc1)N1CCC2(CC1)NC(=O)N(Cc1ccccc1)C2=O` [Example 269] it was 10 to 99.9 nM.
`COc1cccc2c1C1(CCN(C(=O)c3ccc(C[C@@H]4CC[C@H]([C@H](O)c5cccnc5)N4)cc3)CC1)OC(=O)N2` [Example 331]: the EC50 fell in the range of 10 to 99.9 nM.
On the same count and under the same terms, the figure for `CN1CCCC2(CCN(C(=O)c3ccc(C[C@@H]4CC[C@H]([C@H](O)c5ccccc5)N4)cc3)CC2)C1=O` [Example 257] is 100 to 999 nM.
The same measure, in the same setting: in the case of `CC1CC2(CCN(C(=O)c3ccc(C[C@@H]4CC[C@H]([C@H](O)c5ccccc5)N4)cc3)CC2)OC1=O` (stereo partly drawn) [Example 274] it was 10 to 99.9 nM; in that of `Cn1nnnc1C1(C)CCN(C(=O)c2ccc(C[C@@H]3CC[C@H]([C@H](O)c4ccccc4)N3)cc2)CC1` [Example 244], 100 to 999 nM.

The same assay, now with this note: Table 9; Beta-3 agonist in vitro functional assay; read-out: Human β3 agonist functional activity.
As for `O=C(c1ccc(C[C@@H]2CC[C@H]([C@H](O)c3ccccc3)N2)cc1)N1CCN(Cc2ncccc2F)CC1` [Example 418], the EC50 was in the range of 10 to 99.9 nM.
Take `O=C(c1ccc(C[C@@H]2CC[C@H]([C@H](O)c3ccccc3)N2)cc1)N1CCN(C(=O)c2ccccn2)CC1` [Example 348]: the EC50 lay in the range of 10 to 99.9 nM.
The same measure, in the same setting: in the case of `O=C(c1ccc(C[C@@H]2CC[C@H]([C@H](O)c3ccccc3)N2)cc1)N1CCN(Cc2nc3ccccc3o2)CC1` [Example 403] it was 1 to 9.9 nM; in that of `O=C(c1ccc(C[C@@H]2CC[C@H]([C@H](O)c3ccccc3)N2)cc1)N1CCN(c2nccs2)CC1` [Example 378], 10 to 99.9 nM.
The same measure, in the same setting: the figure for `CC(C)Oc1cccnc1N1CCN(C(=O)c2ccc(C[C@@H]3CC[C@H]([C@H](O)c4ccccc4)N3)cc2)CC1` [Example 363] is 10 to 99.9 nM; for `Cc1cc(C)nc(N2CCN(C(=O)c3ccc(C[C@@H]4CC[C@H]([C@H](O)c5ccccc5)N4)cc3)CC2)n1` [Example 372] it is 100 to 999 nM.
The same measure, in the same setting: the figure for `Cc1nonc1N1CCN(C(=O)c2ccc(C[C@@H]3CC[C@H]([C@H](O)c4ccccc4)N3)cc2)CC1` [Example 380] is 10 to 99.9 nM.

Staying with this assay, now noted: Table 10; Beta-3 agonist in vitro functional assay; read-out: Human β3 agonist functional activity.
Take `CC(C(=O)N1CCOCC1)N1CCN(C(=O)c2ccc(C[C@@H]3CC[C@H]([C@H](O)c4ccccc4)N3)cc2)CC1` (stereo partly drawn) [Example 499]: the EC50 fell in the range of 100 to 999 nM.
On the same count and under the same terms, the figure for `CC(C(=O)N(C)C(C1CC1)C1CC1)N1CCN(C(=O)c2ccc(C[C@@H]3CC[C@H]([C@H](O)c4ccccc4)N3)cc2)CC1` (stereo partly drawn) [Example 523] is 10 to 99.9 nM; for `CC(C(=O)NCC1CCCO1)N1CCN(C(=O)c2ccc(C[C@@H]3CC[C@H]([C@H](O)c4ccccc4)N3)cc2)CC1` (stereo partly drawn) [Example 455] it is 10 to 99.9 nM.
On the same count and under the same terms, the figure for `CCCCN(C)C(=O)C(C)N1CCN(C(=O)c2ccc(C[C@@H]3CC[C@H]([C@H](O)c4ccccc4)N3)cc2)CC1` (stereo partly drawn) [Example 514] is 10 to 99.9 nM.
The same measure, in the same setting: in the case of `CC(C(=O)NCc1ncco1)N1CCN(C(=O)c2ccc(C[C@@H]3CC[C@H]([C@H](O)c4ccccc4)N3)cc2)CC1` (stereo partly drawn) [Example 462] it was 10 to 99.9 nM.
On to `CC(C)CCNC(=O)C(C)N1CCN(C(=O)c2ccc(C[C@@H]3CC[C@H]([C@H](O)c4ccccc4)N3)cc2)CC1` (stereo partly drawn) [Example 438], for which the EC50 fell in the range of 100 to 999 nM.

Staying with this assay, now noted: Table 11; cAMP, CHO cells; read-out: Human β3 agonist functional activity.
Turning to `C[C@H]1CN(C(=O)c2ccc(C[C@@H]3CC[C@H]([C@H](O)c4ccccc4)N3)cc2)CCN1Cc1nc2ccccc2o1` [Example 531], the EC50 lay within 10 to 99.9 nM.

The assay is the same for the next values; noted with them: Table 12; human β3 functional activity given as ranges; read-out: Human β3 agonist functional activity.
`O=C(c1ccc(CC2CCC(C(O)c3ccccc3)N2)cc1)N1CCN(C2CCc3cccnc32)CC1` (single isomer, unassigned) [Example 598]: the EC50 was 1 to 9.9 nM.
Same read-out and setting: in the case of `CC(c1nccs1)N1CCN(C(=O)c2ccc(CC3CCC(C(O)c4ccccc4)N3)cc2)CC1` (single isomer, unassigned) [Example 581] it was 1 to 9.9 nM; in that of `CC(c1ncco1)N1CCN(C(=O)c2ccc(CC3CCC(C(O)c4ccccc4)N3)cc2)CC1` (single isomer, unassigned) [Example 583], 10 to 99.9 nM; in that of `O=C(c1ccc(CC2CCC(C(O)c3ccccc3)N2)cc1)N1CCN(C2CCN(C3CC3)C2=O)CC1` (single isomer, unassigned) [Example 607], 100 to 999 nM.
As to `CC(C)C1CC2(CCN(C(=O)c3ccc(CC4CCC(C(O)c5ccccc5)N4)cc3)CC2)C(=O)O1` (single isomer, unassigned) [Example 568], the EC50 fell in the range of 10 to 99.9 nM.

Still in this assay, the particulars now being: given as a range; cAMP, CHO cells; read-out: human β3 functional activity.
On to `O=C(c1ccc(C[C@@H]2CC[C@H]([C@H](O)c3ccccc3)N2)cc1)N1CCC2(CCOC2=O)CC1` [Example 239, 8-[4-({(2S,5R)-5-[(R)-hydroxy(phenyl)methyl]pyrrolidin-2-yl}methyl)benzoyl]-2-oxa-8-azaspiro[4.5]decan-1-one], for which the EC50 is 1 to 9.9 nM.
